Experimental data taken from patent publication US4518413A, “Poly-phosphorodiamide urease inhibitors and urease inhibited urea based fertilizer compositions” (Allied Corporation, priority 1983, dated 1985).

tested on: soil urease; experiment: Efficacy test: inhibition of urease-catalysed urea hydrolysis in soil (urea remaining after incubation); format: biochemical; conditions: New York soil (Cazenovia silt loam, pH 7.2); 800 micrograms test compound and 42.8 mg urea per 20 g air-dry soil; incubated at 25° C. for three days; run in triplicate
Description: Efficacy tests were conducted to evaluate the efficacy of certain representative poly-phosphorodiamide compounds as urease inhibitors. The inhibition tests were run in a New York soil (Cazenovia silt loam, pH 7.2). Evaluations (run in triplicate) consisted of applying 800 micrograms of the test compound in 5 mL of water and 42.8 mg of urea in 1 mL of water to 20 g of air-dry soil in a glass bottle. The bottle was capped with perforated aluminum foil and incubated at 25° C. for three days prior to extraction with 100 mL of a 2M KCl solution containing 0.5 mg of phenylmercuric acetate. The extracts were then analyzed for remaining urea using an autoanalyzer. Percent inhibition was calculated as [formula] where A is urea recovered from unincubated sample (urea added to soil and immediately extracted); B is urea recovered from inhibited sample; and C is urea recovered from the control (uninhibited sample).

Point of comparison: `NP(N)(=O)N1CCN(P(N)(N)=O)CC1` [N,N'Bis-diaminophosphinyl-piperazine, N,N'-Bis-(diaminophosphinyl)piperazine], “% Inhibition” value 76%. Against it:
- NP(N)(=O)NCCCCCCNP(N)(N)=O [N,N'-Bis-(diaminophosphinyl)-1,6-diaminohexane] — higher, 86%
- CC1(NP(N)(N)=O)CCC(C(C)(C)NP(N)(N)=O)CC1 (stereo not drawn) [N,N'-Bis-(diaminophosphinyl)-1,8-diamino-p-menthane] — higher, 84%
- NP(N)(=O)Oc1cccc(OP(N)(N)=O)c1 [Phosphorodiamidic Acid 1,3-Phenylene Ester] — higher, 81%
- NP(N)(=O)Oc1ccc(OP(N)(N)=O)cc1 [Phosphorodiamidic Acid 1,4-Phenylene Ester] — higher, 90%
- CC(C)(c1ccc(OP(N)(N)=O)cc1)c1ccc(OP(N)(N)=O)cc1 [Phosphorodiamidic Acid (1-Methylethylidene)-di-4,1-PhenyleneEster] — lower, 70%
